According to patent US9453026B2, “ACC inhibitors and uses thereof” (Gilead Apollo, Inc., priority 2011, dated 2016):

What was measured:
[1] = target: ACC1 (Homo sapiens, UniProt Q13085); test: In vitro ACC1 inhibition assay (ADP-Glo); assay type: biochemical; conditions: read-out: ACC1
Procedure: An exemplary procedure for the in vitro ACC inhibition assay, which can be used to determine the inhibitory action of compounds of the invention toward either ACC1 or ACC2, follows. The ADP-Glo™ Kinase Assay kit from Promega was used. The ADP-Glo™ Kinase Assay is a luminescent ADP detection assay to measure enzymatic activity by quantifying the amount of ADP produced during an enzyme reaction. The assay is performed in two steps; first, after the enzyme reaction, an equal volume of ADP-Glo™ Reagent is added to terminate the reaction and deplete the remaining ATP. Second, the Kinase Detection Reagent is added to simultaneously convert ADP to ATP and allow the newly synthesized ATP to be measured using a luciferase/luciferin reaction. Luminescence can be correlated to ADP concentrations by using an ATP-to-ADP conversion curve. The detailed procedure is as follows. 50 μL of the compound being tested (600 uM in DMSO) was added to a 384-well dilution plate. The compound was diluted 1:3 in succession in DMSO for each row for 11 wells. 0.5 μL ACC2 working solution was added to 384-well white Optiplate assay plate. 0.5 μL diluted compound solution in each column from step 2 to assay plate, each row containing 2 replicates. […] The plates were incubated at room temperature for 15 minutes. 5 μL substrate working solution was added to each well to initiate reaction. […] Plates were incubated at room temperature for 60 minutes. 10 μL ADP glo reagent was added. Plates were incubated at room temperature for 40 minutes. 20 μL kinase detection reagent was added.
Data for each concentration, as well as the positive and negative controls were averaged, and the standard deviation calculated. Percent inhibition was calculated by the formula: 100× (average negative control−compound)/(average negative control−average positive control). The IC50 for each compound was calculated by fitting the data with a non-linear regression equation: Y=Bottom+(Top-Bottom)/(1+10^((Log IC50−X)*HillSlope)), where X is the log of compound concentration and Y is percent inhibition.
The compound numbers correspond to the compound numbers in Table 1.

[2] = target: ACC2 (Homo sapiens, UniProt O00763); test: In vitro ACC2 inhibition assay (ADP-Glo); assay type: biochemical; conditions: read-out: ACC2
Procedure, shortened: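 Enzyme (human ACC1 or ACC2) and compound, serially diluted 1:3 over 11 points from a 600 uM DMSO stock, were preincubated 15 min before substrate addition.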

Sequence of ACC2 (O00763 whole entry, species assumed): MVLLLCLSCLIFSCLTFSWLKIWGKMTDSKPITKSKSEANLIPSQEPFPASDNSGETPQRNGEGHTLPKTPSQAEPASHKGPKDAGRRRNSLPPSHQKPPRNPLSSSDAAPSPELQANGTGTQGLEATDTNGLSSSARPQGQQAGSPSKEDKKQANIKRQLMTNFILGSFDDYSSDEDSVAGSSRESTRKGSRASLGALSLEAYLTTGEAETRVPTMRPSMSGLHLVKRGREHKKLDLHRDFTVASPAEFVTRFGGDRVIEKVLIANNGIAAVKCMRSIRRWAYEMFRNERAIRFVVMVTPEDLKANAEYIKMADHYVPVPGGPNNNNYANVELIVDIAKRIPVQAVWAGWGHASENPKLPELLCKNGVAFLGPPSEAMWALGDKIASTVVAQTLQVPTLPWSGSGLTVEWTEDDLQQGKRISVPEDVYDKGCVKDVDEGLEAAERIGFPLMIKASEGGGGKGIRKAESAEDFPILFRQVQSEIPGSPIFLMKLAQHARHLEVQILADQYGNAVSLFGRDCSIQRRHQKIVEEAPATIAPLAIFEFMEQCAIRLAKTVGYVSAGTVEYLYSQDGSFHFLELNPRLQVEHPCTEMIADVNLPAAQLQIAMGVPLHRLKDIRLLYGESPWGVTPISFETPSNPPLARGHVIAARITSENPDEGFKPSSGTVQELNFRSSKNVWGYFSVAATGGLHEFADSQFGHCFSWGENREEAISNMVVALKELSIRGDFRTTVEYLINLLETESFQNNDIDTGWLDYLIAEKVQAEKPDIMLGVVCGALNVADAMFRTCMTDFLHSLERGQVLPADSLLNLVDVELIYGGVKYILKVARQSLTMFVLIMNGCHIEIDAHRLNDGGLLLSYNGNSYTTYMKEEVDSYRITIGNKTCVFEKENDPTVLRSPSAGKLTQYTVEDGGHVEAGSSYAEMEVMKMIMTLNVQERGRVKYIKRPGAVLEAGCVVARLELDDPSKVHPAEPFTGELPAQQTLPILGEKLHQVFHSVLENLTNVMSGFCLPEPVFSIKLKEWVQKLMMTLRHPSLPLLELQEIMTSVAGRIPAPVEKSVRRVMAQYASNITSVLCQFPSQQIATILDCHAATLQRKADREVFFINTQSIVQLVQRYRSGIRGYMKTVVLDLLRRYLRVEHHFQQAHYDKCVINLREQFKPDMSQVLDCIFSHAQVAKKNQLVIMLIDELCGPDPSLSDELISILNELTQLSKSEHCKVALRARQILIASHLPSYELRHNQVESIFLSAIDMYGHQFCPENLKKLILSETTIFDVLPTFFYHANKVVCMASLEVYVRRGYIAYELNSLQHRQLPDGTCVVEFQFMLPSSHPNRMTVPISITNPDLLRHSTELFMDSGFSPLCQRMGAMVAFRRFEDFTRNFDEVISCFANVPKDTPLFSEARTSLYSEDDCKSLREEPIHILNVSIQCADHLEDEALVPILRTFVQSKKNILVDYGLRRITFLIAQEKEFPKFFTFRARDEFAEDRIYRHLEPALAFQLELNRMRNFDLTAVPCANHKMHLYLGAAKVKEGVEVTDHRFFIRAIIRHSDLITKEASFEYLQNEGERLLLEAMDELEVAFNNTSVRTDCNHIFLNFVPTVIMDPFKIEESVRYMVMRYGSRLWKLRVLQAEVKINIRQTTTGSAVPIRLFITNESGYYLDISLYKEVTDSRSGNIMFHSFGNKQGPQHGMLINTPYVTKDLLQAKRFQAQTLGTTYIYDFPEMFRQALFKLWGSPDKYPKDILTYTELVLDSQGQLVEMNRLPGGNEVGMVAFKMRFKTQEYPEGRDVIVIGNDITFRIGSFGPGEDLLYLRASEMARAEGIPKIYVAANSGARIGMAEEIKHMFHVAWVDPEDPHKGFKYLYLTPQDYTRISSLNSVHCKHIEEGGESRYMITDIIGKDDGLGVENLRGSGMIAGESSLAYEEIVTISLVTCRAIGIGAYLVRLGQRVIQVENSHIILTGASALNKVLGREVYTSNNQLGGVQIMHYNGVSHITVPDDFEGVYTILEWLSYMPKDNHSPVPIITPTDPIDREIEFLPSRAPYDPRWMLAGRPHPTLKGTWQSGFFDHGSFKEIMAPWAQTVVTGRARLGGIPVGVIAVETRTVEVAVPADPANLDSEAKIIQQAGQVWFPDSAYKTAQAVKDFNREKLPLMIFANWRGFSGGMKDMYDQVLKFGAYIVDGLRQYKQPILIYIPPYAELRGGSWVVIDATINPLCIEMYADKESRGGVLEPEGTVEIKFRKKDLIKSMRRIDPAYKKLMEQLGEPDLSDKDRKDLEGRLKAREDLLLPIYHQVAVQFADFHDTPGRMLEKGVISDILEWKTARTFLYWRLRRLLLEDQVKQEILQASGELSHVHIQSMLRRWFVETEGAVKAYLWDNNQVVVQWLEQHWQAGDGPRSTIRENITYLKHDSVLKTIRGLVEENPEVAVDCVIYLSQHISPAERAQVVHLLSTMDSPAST

| SMILES | IC50 [1] | IC50 [2] |
| --- | --- | --- |
| CCOC(=O)c1sc2c(c1C)c(=O)n(CCO)c(=O)n2CCc1ccccc1Cl [I-20, ethyl 1-[2-(2-chlorophenyl)ethyl]-3-(2-hydroxyethyl)-5-methyl-2,4-dioxo-1H,2H,3H,4H-thieno[2,3-d]pyrimidine-6-carboxylate] | 5000 to 20000 nM | < 5000 nM |
| Cc1c(-c2ncco2)sc2c1c(=O)n(C(C)(C)C(=O)O)c(=O)n2C[C@H](OC1CCOCC1)c1ccccc1C(F)(F)F [I-266, 2-methyl-2-[5-methyl-1-[(2R)-2-(oxan-4-yloxy)-2-[2-(trifluoromethyl)phenyl]ethyl]-6-(1,3-oxazol-2-yl)-2,4-dioxo-1H,2H,3H,4H-thieno[2,3-d]pyrimidin-3-yl]propanoic acid] | < 1000 nM |  |
| COc1ccccc1[C@H](Cn1c(=O)n(C(C)(C)C(=O)O)c(=O)c2c(C)c(-c3ncco3)sc21)OC1CCC(=O)CC1 [I-276, (R)-2-(1-(2-(2-methoxyphenyl)-2-((4-oxocyclohexyl)oxy)ethyl)-5-methyl-6-(oxazol-2-yl)-2,4-dioxo-1,2-dihydrotheno[2,3-d]pyrimidin-3(4H)-yl)-2-methylpropanoic acid] | < 100 nM |  |
| Cc1c(-c2ncco2)sc2c1c(=O)n(C(C)(C)C(=O)N1CCC1)c(=O)n2C[C@H](OC1CCOCC1)c1ccccc1O [I-284, 3-[1-(azetidin-1-yl)-2-methyl-1-oxopropan-2-yl]-1-[(2R)-2-(2-hydroxyphenyl)-2-(oxan-4-yloxy)ethyl]-5-methyl-6-(1,3-oxazol-2-yl)-1H,2H,3H,4H-thieno[2,3-d]pyrimidine-2,4-dione] | < 100 nM |  |
| Cc1c(-c2ncco2)sc2c1c(=O)n(C(C)(C)C(=O)O)c(=O)n2C[C@H](OC(C)C)c1ccccc1OC(F)(F)F [I-265, (R)-2-(1-(2-isopropoxy-2-(2-(trifluoromethoxy)phenyl)ethyl)-5-methyl-6-(oxazol-2-yl)-2,4-doxo-1,2-dihydrotheno[2,3-d]pyrimidin-3(4H)-yl)-2-methylpropanoic acid] | < 1000 nM |  |
| COc1ccccc1[C@@H](O)Cn1c(=O)n(C(C)(C)C(=O)O)c(=O)c2c(C)c(-c3ncco3)sc21 [I-248, 2-[1-[(2R)-2-hydroxy-2-(2-methoxyphenyl)ethyl]-5-methyl-6-(1,3-oxazol-2-yl)-2,4-dioxo-1H,2H,3H,4H-thieno[2,3-d]pyrimidin-3-yl]-2-methylpropanoic acid] | < 1000 nM |  |
| Cc1c(-c2ncco2)sc2c1c(=O)n(C(C)(C)C(=O)N1CCC1)c(=O)n2C[C@H](OC1CCOCC1)c1ccccc1Cl [I-253, 3-[1-(azetidin-1-yl)-2-methyl-1-oxopropan-2-yl]-1-[(2R)-2-(2-chlorophenyl)-2-(oxan-4-yloxy)ethyl]-5-methyl-6-(1,3-oxazol-2-yl)-1H,2H,3H,4H-thieno[2,3-d]pyrimidine-2,4-dione] | < 1000 nM |  |
| Cc1c(-c2ncco2)sc2c1c(=O)n(C(C)(C)C(N)=O)c(=O)n2C[C@H](OC1CCOCC1)c1ccccc1O [I-283, 2-[1-[(2R)-2-(2-hydroxyphenyl)-2-(oxan-4-yloxy)ethyl]-5-methyl-6-(1,3-oxazol-2-yl)-2,4-dioxo-1H,2H,3H,4H-thieno[2,3-d]pyrimidin-3-yl]-2-methylpropanamide] | < 100 nM |  |
| CCOC(=O)c1sc2c(c1C)c(=O)n(C(C)(C)C(=O)O)c(=O)n2C[C@@H](OC(C)(C)C)c1ccccc1 [I-128, 2-[1-[(2S)-2-(tert-butoxy)-2-phenylethyl]-6-(ethoxycarbonyl)-5-methyl-2,4-doxo-1H,2H,3H,4H-thieno[2,3-d]pyrimidin-3-yl]-2-methylpropanoic acid] |  | 20000 to 50000 nM |
| CCOC(=O)c1sc2c(c1C)c(=O)n(CC(N)=O)c(=O)n2C[C@@H](OC(C)C)c1ccccc1 [I-113, ethyl 3-(carbamoylmethyl)-5-methyl-2,4-dioxo-1-[(2S)-2-phenyl-2-(propan-2-yloxy)ethyl]-1H,2H,3H,4H-thieno[2,3-d]pyrimidine-6-carboxylate] |  | 20000 to 50000 nM |

Results, then the molecule that gave them:

| IC50 [1] | IC50 [2] | SMILES |
| --- | --- | --- |
| < 100 nM | < 1000 nM | CCOC(=O)c1sc2c(c1C)c(=O)n(C(C)(C)C(=O)O)c(=O)n2C[C@H](OC(C)C)c1ccccc1 [I-108, 2-[6-(ethoxycarbonyl)-5-methyl-2,4-dioxo-1-[(2R)-2-phenyl-2-(propan-2-yloxy)ethyl]-1H,2H,3H,4H-thieno[2,3-d]pyrimidin-3-yl]-2-methylpropanoic acid] |
| < 100 nM | < 100 nM | COc1ccccc1[C@H](Cn1c(=O)n(C(C)(C)C(=O)N2CCCCC2)c(=O)c2c(C)c(-c3ncco3)sc21)OC(C)C [I-239, 1-[(2R)-2-(2-methoxyphenyl)-2-(propan-2-yloxy)ethyl]-5-methyl-3-[2-methyl-1-oxo-1-(piperidin-1-yl)propan-2-yl]-6-(1,3-oxazol-2-yl)-1H,2H,3H,4H-thieno[2,3-d]pyrimidine-2,4-dione] |
| < 100 nM | < 100 nM | Cc1c(-c2ncco2)sc2c1c(=O)n(C(C)(C)C(=O)O)c(=O)n2C[C@H](OC1CCOCC1)c1ccccc1OC(F)F [I-264, 2-[1-[(2R)-2-[2-(difluoromethoxy)phenyl]-2-(oxan-4-yloxy)ethyl]-5-methyl-6-(1,3-oxazol-2-yl)-2,4-dioxo-1H,2H,3H,4H-thieno[2,3-d]pyrimidin-3-yl]-2-methylpropanoic acid] |
| > 50000 nM | > 50000 nM | CCOC(=O)c1sc2c(c1C)c(=O)n(CCS(C)(=O)=O)c(=O)n2CCc1ccccc1 [I-52] |
| < 5000 nM | < 5000 nM | CCOC(=O)c1sc2c(c1C)c(=O)n(CC(=O)O)c(=O)n2CCc1ccccc1 [I-13] |
| < 100 nM | < 100 nM | COc1ccccc1[C@H](Cn1c(=O)n(C(C)(C)C(=O)N2CCC2)c(=O)c2c(C)c(-c3ncco3)sc21)OC1CCOCC1 [I-247, 3-[1-(azetidin-1-yl)-2-methyl-1-oxopropan-2-yl]-1-[(2R)-2-(2-methoxyphenyl)-2-(oxan-4-yloxy)ethyl]-5-methyl-6-(1,3-oxazol-2-yl)-1H,2H,3H,4H-thieno[2,3-d]pyrimidine-2,4-dione] |
| < 1000 nM |  | Cc1c(-c2ncco2)sc2c1c(=O)n(C(C)(C)C(N)=O)c(=O)n2C[C@H](OC1CCOCC1)c1ccccc1Cl [I-252, 2-[1-[(2R)-2-(2-chlorophenyl)-2-(oxan-4-yloxy)ethyl]-5-methyl-6-(1,3-oxazol-2-yl)-2,4-dioxo-1H,2H,3H,4H-thieno[2,3-d]pyrimidin-3-yl]-2-methylpropanamide] |
| < 5000 nM |  | COc1cc(Br)ccc1[C@H](Cn1c(=O)n(C(C)(C)C(=O)O)c(=O)c2c(C)c(-c3ncco3)sc21)OC1CCOCC1 [I-270, 2-[1-[(2R)-2-(4-bromo-2-methoxyphenyl)-2-(oxan-4-yloxy)ethyl]-5-methyl-6-(1,3-oxazol-2-yl)-2,4-dioxo-1H,2H,3H,4H-thieno[2,3-d]pyrimidin-3-yl]-2-methylpropanoic acid] |
| < 100 nM |  | Cc1c(-c2ncco2)sc2c1c(=O)n(C(C)(C)C(=O)O)c(=O)n2C[C@H](OC1CCOCC1)c1ccccc1O [I-273, 2-[1-[(2R)-2-(2-hydroxyphenyl)-2-(oxan-4-yloxy)ethyl]-5-methyl-6-(1,3-oxazol-2-yl)-2,4-dioxo-1H,2H,3H,4H-thieno[2,3-d]pyrimidin-3-yl]-2-methylpropanoic acid] |
| < 5000 nM |  | COc1ccccc1[C@H](Cn1c(=O)n(C(C)(C)C(=O)O)c(=O)c2c(C)c(-c3ncco3)sc21)OCC1COC1 [I-269, (R)-2-(1-(2-(2-methoxyphenyl)-2-(oxetan-3-ylmethoxy)ethyl)-5-methyl-6-(oxazol-2-yl)-2,4-dioxo-1,2-dihydrothieno[2,3-d]pyrimidin-3(4H)-yl)-2-methylpropanoic acid] |
| < 100 nM |  | COc1ccccc1[C@H](Cn1c(=O)n(C(C)(C)C(=O)N2CCC2)c(=O)c2c(C)c(-c3ncco3)sc21)OCC1CCOCC1 [I-275, 3-[1-(azetidin-1-yl)-2-methyl-1-oxopropan-2-yl]-1-[(2R)-2-(2-methoxyphenyl)-2-(oxan-4-ylmethoxy)ethyl]-5-methy-6-(1,3-oxazol-2-yl)-1H,2H,3H,4H-thieno[2,3-d]pyrimidine-2,4-dione] |
|  | < 5000 nM | COc1ccccc1[C@@H](Cn1c(=O)n(C(C)(C)C(=O)O)c(=O)c2c(C)c(-c3ncco3)sc21)OC1COC1 [I-262, (S)-2-(1-(2-(2-methoxyphenyl)-2-(oxetan-3-yloxy)ethyl)-5-methyl-6-(oxazol-2-yl)-2,4-dioxo-1,2-dihydrothieno[2,3-d]pyrimidin-3(4H)-yl)-2-methylpropanoic acid] |
|  | > 50000 nM | CCOC(=O)c1sc2c(c1C)c(=O)n(CCO)c(=O)n2Cc1csc(C)n1 [I-35] |
|  | 5000 to 20000 nM | CCOC(=O)c1sc2c(c1C)c(=O)n(CC(=O)O)c(=O)n2Cc1ccc2ccn(C)c2c1 [I-74, 2-[6-(ethoxycarbonyl)-5-methyl-1-[(1-methyl-1H-indol-6-yl)methyl]-2,4-dioxo-1H,2H,3H,4H-thieno[2,3-d]pyrimidin-3-yl]acetic acid] |
